What was measured:
[1] = test system: green peach aphid (Myzus persicae); test: Myzus test (MYZUPE spray treatment), Chinese cabbage leaf discs; type: in vivo; conditions: foliar, spray on Chinese cabbage discs, read-out: effect in % (aphids killed); for pest or weed control at 500 g/ha: application rate of 500 g/ha; for pest or weed control at 500 ppm: application rate of 500 ppm
Experimental: Myzus Test (MYZUPE Spray Treatment)
Solvents: 78 parts by weight of acetone • • 1.5 parts by weight of dimethylformamide Emulsifier: 0.5 part by weight of alkylaryl polyglycol ether
An appropriate preparation of active ingredient is prepared by mixing 1 part by weight of active ingredient with the stated amounts of solvents and emulsifier and diluting the concentrate with emulsifier-containing water to the desired concentration.
Discs of Chinese cabbage (Brassica pekinensis) infested with all stages of the green peach aphid (Myzus persicae) are sprayed with a preparation of active ingredient at the desired concentration.
After the desired time, the effect in % is determined. Here, 100% means that all of the aphids have been killed; 0% means that no aphids have been killed.

[2] = test system: green peach aphid (Myzus persicae); test: Myzus test (MYZUPE), sprayed aubergine plants; type: in vivo; conditions: read-out: effect in % (aphids killed)
Experimental: Solvent: 3 parts by weight of dimethylformamide Emulsifier: 1 part by weight of polyoxyethylenealkyl phenyl ether
An appropriate preparation of active ingredient is prepared by mixing 1 part by weight of active ingredient with the stated amount of solvent and emulsifier and diluting the concentrate with water to the desired concentration.
Aubergine plants (Solanum melongena) infested by all stages of the green peach aphid (Myzus persicae) are sprayed with a preparation of active ingredient at the desired concentration.
After the desired time, the effect in % is determined; here, 100% means that all of the aphids have been killed. Conversely, 0% means that no aphids have been killed.

[3] = application rate of 500 ppm, spray on aubergine plants

Row | Structure (SMILES) | pest or weed control at 500 g/ha [1] | also measured
1 | CN(C(=O)c1ccc2c(c1)OC(F)(F)O2)c1cccnc1 [I-261] | ≥ 80% | –
2 | CC(C)n1ncc(C(=O)Nc2cccnc2)c1C(F)(F)F [I-285] | ≥ 80% | –
3 | COc1ccc(C(=O)N(C)c2cccnc2)cc1NC(=O)OC(C)C [I-337] | ≥ 80% | –
4 | CCC(=O)Nc1cc(C(=O)N(C)c2cccnc2)ccc1OC [I-331] | ≥ 80% | –
5 | CN(C(=O)c1ccc(F)c(NC(=O)C2CC2)c1)c1cccnc1 [I-301] | ≥ 80% | –
6 | CN(C(=O)c1cn(C)nc1C(F)F)c1ccnnc1 [I-319] | ≥ 80% | –
7 | COCc1c(C(=O)N(C)c2cccnc2)cnn1CC(F)(F)F [I-270] | ≥ 80% | –
8 | COc1ccc(C(=O)N(C)c2cccnc2)cc1[N+](=O)[O-] [I-294] | ≥ 80% | –
9 | Cc1ccc(C(=O)N(C)c2cccnc2)cc1NC(=O)C(C)(C)C [I-305] | ≥ 80% | –
10 | C/C=C/C(=O)Nc1cc(C(=O)N(C)c2cccnc2)ccc1C [I-317] | ≥ 80% | –
11 | CC(C)C(=O)Nc1cccc(C(=O)Nc2cccnc2)c1 [I-286] | ≥ 80% | –
12 | O=C(Nc1cccnc1)c1ccc(OC(F)(F)F)cc1 [I-264] | ≥ 80% | –
13 | COc1ccc(C(=O)N(C)c2cccnc2)cc1NS(=O)(=O)C(C)C [I-334] | ≥ 80% | –
14 | Cc1ccc(C(=O)N(C)c2cccnc2)cc1[N+](=O)[O-] [I-295] | ≥ 80% | –
15 | COc1ccc(C(=O)Nc2cccnc2)cc1OC [I-263] | ≥ 80% | –
16 | CC(C)c1nn(C)cc1C(=O)N(C)c1ccnnc1 [I-323] | ≥ 80% | –
17 | Cc1ccc(C(=O)N(C)c2cccnc2)cc1NC(=O)C(C)C [I-300, 3-Isobutyrylamino-4,N-dimethyl-N-pyridin-3-ylbenzamide] | ≥ 80% | –
18 | CN(C(=O)c1cnn(-c2ncccn2)c1C(C)(F)F)c1cccnc1 [I-277] | ≥ 80% | –
19 | CN(C(=O)c1cnn(-c2ccccc2Cl)c1C(F)(F)F)c1cccnc1 [I-271] | ≥ 80% | –
20 | COC(C)c1c(C(=O)N(C)c2cccnc2)cnn1-c1ncccn1 (centres unmarked) [I-276] | ≥ 80% | –
21 | Cc1ccc(C(=O)N(C)c2cccnc2)cc1NC(=O)NC(C)C [I-314] | ≥ 80% | –

Row | Structure (SMILES) | pest or weed control at 500 g/ha [1] | also measured
22 | CC(=O)Nc1cc(C(=O)N(C)c2cccnc2)ccc1Cl [I-307] | ≥ 80% | –
23 | COC(C)c1c(C(=O)N(C)c2cccnc2)cnn1CC(F)(F)F (centres unmarked) [I-275] | ≥ 80% | –
24 | CCC(=O)Nc1cc(C(=O)N(C)c2cccnc2)ccc1C [I-310] | ≥ 80% | –
25 | COc1ccc(C(=O)N(C)c2cccnc2)cc1NC(=O)C1CCCC1 [I-333] | ≥ 80% | –
26 | COc1ccc(C(=O)N(C)c2cccnc2)cc1-n1cccn1 [I-280, 4-Methoxy-N-methyl-3-pyrazol-1-yl-N-pyridin-3-ylbenzamide] | ≥ 80% | –
27 | CCC(C)C(=O)Nc1cc(C(=O)N(C)c2cccnc2)ccc1OC (centres unmarked) [I-332] | ≥ 80% | –
28 | CCCC(=O)Nc1cc(C(=O)N(C)c2cccnc2)ccc1OC [I-336] | ≥ 80% | –
29 | CCn1ncc(C(=O)Nc2cccnc2)c1C(F)(F)F [I-287] | ≥ 80% | –
30 | CC(=O)Nc1cccc(C(=O)N(C)c2cccnc2)c1 [I-283] | ≥ 80% | –
31 | COc1ccc(C(=O)N(C)c2cccnc2)cc1NC(=O)C(C)C [I-297] | ≥ 80% | –
32 | CN(C(=O)c1cnn(-c2ncccc2Cl)c1C(F)(F)F)c1cccnc1 [I-272] | ≥ 80% | –
33 | CN(C(=O)c1ccc(S(C)(=O)=O)c(N)c1)c1cccnc1 [I-296] | – | pest or weed control at 500 ppm [1]: ≥ 80%
34 | CCn1cc(C(=O)N(C)c2ccnnc2)c(C)n1 [I-327] | ≥ 80% | –
35 | CC(C)=CC(=O)Nc1cc(C(=O)N(C)c2cccnc2)ccc1C [I-318] | ≥ 80% | –
36 | CN(C(=O)c1cnn(CC(F)(F)F)c1C(F)F)c1cccnc1 [I-269] | ≥ 80% | –
37 | Cc1ccc(C(=O)N(C)c2cccnc2)cc1NC(=O)OC(C)C [I-316] | ≥ 80% | –
38 | CC(F)c1nn(C)cc1C(=O)N(C)c1ccnnc1 (centres unmarked) [I-321] | ≥ 80% | –
39 | CN(C(=O)c1ccc(F)c(C(F)(F)F)c1)c1cccnc1 [I-259] | ≥ 80% | –
40 | CC(C)Oc1ccc(C(=O)N(C)c2cccnc2)cc1-n1ccc(C(F)(F)F)n1 [I-279] | ≥ 80% | –
41 | O=C(Nc1cccnc1)c1cnn(CC(F)(F)F)c1-c1cnccn1 [I-257] | ≥ 80% | –
42 | CN(C(=O)c1cnn(-c2ncccn2)c1C(F)(F)F)c1cccnc1 [I-268, 1-Pyrimidin-2-yl-5-trifluoromethyl-1H-pyrazole-4-carboxylic acid methylpyridin-3-ylamide] | ≥ 80% | –

Row | Structure (SMILES) | pest or weed control at 500 g/ha [1] | also measured
43 | CN(C(=O)c1cnn(CC(F)(F)F)c1C(F)(F)F)c1cccnc1 [I-330] | ≥ 80% | –
44 | CN(C(=O)c1ccc(Cl)c(NC(=O)C2CC2)c1)c1cccnc1 [I-302] | ≥ 80% | –
45 | COCc1c(C(=O)N(C)c2cccnc2)cnn1-c1ncccn1 [I-273] | ≥ 80% | –
46 | CN(C(=O)c1cn(C)nc1C(F)(F)F)c1ccnnc1 [I-322] | ≥ 80% | –
47 | COc1ccc(C(=O)N(C)c2cccnc2)cc1OC [I-260] | ≥ 80% | –
48 | CN(C(=O)c1cnn(-c2ncccn2)c1C(F)F)c1cccnc1 [I-274] | ≥ 80% | –
49 | CC(C)C(=O)Nc1cc(C(=O)N(C)c2cccnc2)ccc1F [I-298] | ≥ 80% | –
50 | CC(C)n1ncc(C(=O)N(C)c2cccnc2)c1C(F)(F)F [I-329] | ≥ 80% | –
51 | Cc1ccc(C(=O)N(C)c2cccnc2)cc1NC(=O)C1CCCC1 [I-312] | ≥ 80% | –
52 | Cc1ncccc1-n1ncc(C(=O)Nc2cccnc2)c1C [I-2] | – | pest or weed control at 20 g/ha ([1]; application rate of 20 g/ha): ≥ 80%
53 | Cc1ccc(C(=O)Nc2cccnc2)cc1NC(=O)C1CC1 [I-292] | ≥ 80% | –
54 | CCc1nn(C)cc1C(=O)N(C)c1ccnnc1 [I-326] | ≥ 80% | –
55 | CCCC(=O)Nc1cc(C(=O)N(C)c2cccnc2)ccc1C [I-315] | ≥ 80% | –
56 | Cn1cc(C(=O)Nc2ccnnc2)c(C(F)(F)F)n1 [I-281] | ≥ 80% | –
57 | CN(C(=O)c1cccc(C(F)(F)F)c1)c1cccnc1 [I-262] | ≥ 80% | –
58 | CC(C)C(=O)Nc1cc(C(=O)N(C)c2cccnc2)ccc1Cl [I-299] | ≥ 80% | –
59 | CCC(C)C(=O)Nc1cc(C(=O)N(C)c2cccnc2)ccc1C (centres unmarked) [I-311] | ≥ 80% | –
60 | CC(C)C(=O)Nc1cccc(C(=O)N(C)c2cccnc2)c1 [I-284] | – | pest or weed control at 500 ppm [1]: ≥ 80%
61 | O=C(Nc1cccnc1)c1ccc(C(F)(F)C(F)(F)C(F)(F)F)cc1 [I-29] | – | pest or weed control at 500 ppm [2]: ≥ 80%
62 | CN(C(=O)c1ccc(Oc2ccc3cccnc3c2)nc1)c1cccnc1 [I-141] | – | pest or weed control at 500 ppm [2, 3]: ≥ 80%
63 | Cc1ccc(Oc2ccc(C(=O)N(C)c3cccnc3)cn2)cc1 [I-102] | – | pest or weed control at 500 ppm [2, 3]: ≥ 80%

Row | Structure (SMILES) | pest or weed control at 500 g/ha [1] | also measured
64 | CSc1cccc(C(=O)N(C)c2cccnc2)c1 [I-69] | – | pest or weed control at 500 ppm [2, 3]: ≥ 80%
65 | C#CCN(C(=O)c1ccc(Oc2ccc(OC(F)(F)F)cc2)nc1)c1cccnc1 [I-135] | – | pest or weed control at 500 ppm [2, 3]: ≥ 80%
66 | CCN(C(=O)c1ccc(Sc2nccc(C)n2)nc1)c1cccnc1 [I-197] | – | pest or weed control at 500 ppm [2, 3]: ≥ 80%
67 | CN(C)C(=O)c1ccc(C(=O)Nc2cccnc2)cc1 [I-41] | – | pest or weed control at 500 ppm [2, 3]: ≥ 80%
68 | CCSCc1ccc(C(=O)N(C)c2cccnc2)cc1 [I-58] | – | pest or weed control at 500 ppm [2, 3]: ≥ 80%
69 | CN(C(=O)c1ccc(Oc2ccc(C(F)(F)F)cc2)nc1)c1cccnc1 [I-117] | – | pest or weed control at 500 ppm [2, 3]: ≥ 80%
70 | CCN(C(=O)c1ccc(Oc2nc(OC)cc(OC)n2)nc1)c1cccnc1 [I-169] | – | pest or weed control at 500 ppm [2, 3]: ≥ 80%
71 | Cc1cc(C)nc(Sc2ccc(C(=O)N(Cc3ccc([N+](=O)[O-])cc3)c3cccnc3)cn2)n1 [I-229] | – | pest or weed control at 500 ppm [2, 3]: ≥ 80%
72 | CCN(C(=O)c1ccc(Sc2nc(C)c(C)c(C)n2)nc1)c1cccnc1 [I-220] | – | pest or weed control at 500 ppm [2, 3]: ≥ 80%
73 | C#CCN(C(=O)c1ccc(Cl)nc1)c1cccnc1 [I-232] | – | pest or weed control at 500 ppm [2, 3]: ≥ 80%
74 | CCCSCc1ccc(C(=O)N(C)c2cccnc2)cc1 [I-60] | – | pest or weed control at 500 ppm [2, 3]: ≥ 80%
75 | COc1cc(OC)nc(Oc2ccc(C(=O)N(C)c3cccnc3)cn2)n1 [I-145] | – | pest or weed control at 500 ppm [2, 3]: ≥ 80%
76 | O=C(Nc1cccnc1)c1ccc(NCCN2CCOCC2)nc1 [I-223] | – | pest or weed control at 500 ppm [2, 3]: ≥ 80%
77 | C=CCN(C(=O)c1ccc(Cl)nc1)c1cccnc1 [I-231] | – | pest or weed control at 500 ppm [2, 3]: ≥ 80%
78 | CCN(C)C(=O)c1cccc(C(=O)Nc2cccnc2)c1 [I-71] | – | pest or weed control at 500 ppm [2, 3]: ≥ 80%
79 | CCN(C(=O)c1ccc(Oc2cccc(C(F)(F)F)c2)nc1)c1cccnc1 [I-221] | – | pest or weed control at 500 ppm [2, 3]: ≥ 80%
80 | CCN(C)C(=O)c1cc(C(=O)N(C)c2cccnc2)ccc1OC [I-77] | – | pest or weed control at 500 ppm [2, 3]: ≥ 80%
81 | Cc1cccc(Oc2ccc(C(=O)N(C)c3cccnc3)cn2)c1 [I-97] | – | pest or weed control at 500 ppm [2, 3]: ≥ 80%
82 | CN(C(=O)c1cnc(Oc2ccc(C(F)(F)F)cc2)c(Cl)c1)c1cccnc1 [I-146] | – | pest or weed control at 500 ppm [2, 3]: ≥ 80%
83 | O=C(Nc1cccnc1)c1ccc(NCC2CC2)nc1 [I-210] | – | pest or weed control at 500 ppm [2, 3]: ≥ 80%

Source: patent US20100305124A1, “Acylated Aminopyridine and Aminopyridazine Insecticides” (BAYER CROPSCIENCE AG, priority 2009, published 2010)
